Measured values: BindingDB's records for patent US10188642 (Cancer Research Technology Limited, 2019)
pIC50: −log10 of the molar value.

Molecular target: T1, Dual specificity protein kinase TTK (Homo sapiens, UniProt P33981)
T1 sequence (P33981 whole entry): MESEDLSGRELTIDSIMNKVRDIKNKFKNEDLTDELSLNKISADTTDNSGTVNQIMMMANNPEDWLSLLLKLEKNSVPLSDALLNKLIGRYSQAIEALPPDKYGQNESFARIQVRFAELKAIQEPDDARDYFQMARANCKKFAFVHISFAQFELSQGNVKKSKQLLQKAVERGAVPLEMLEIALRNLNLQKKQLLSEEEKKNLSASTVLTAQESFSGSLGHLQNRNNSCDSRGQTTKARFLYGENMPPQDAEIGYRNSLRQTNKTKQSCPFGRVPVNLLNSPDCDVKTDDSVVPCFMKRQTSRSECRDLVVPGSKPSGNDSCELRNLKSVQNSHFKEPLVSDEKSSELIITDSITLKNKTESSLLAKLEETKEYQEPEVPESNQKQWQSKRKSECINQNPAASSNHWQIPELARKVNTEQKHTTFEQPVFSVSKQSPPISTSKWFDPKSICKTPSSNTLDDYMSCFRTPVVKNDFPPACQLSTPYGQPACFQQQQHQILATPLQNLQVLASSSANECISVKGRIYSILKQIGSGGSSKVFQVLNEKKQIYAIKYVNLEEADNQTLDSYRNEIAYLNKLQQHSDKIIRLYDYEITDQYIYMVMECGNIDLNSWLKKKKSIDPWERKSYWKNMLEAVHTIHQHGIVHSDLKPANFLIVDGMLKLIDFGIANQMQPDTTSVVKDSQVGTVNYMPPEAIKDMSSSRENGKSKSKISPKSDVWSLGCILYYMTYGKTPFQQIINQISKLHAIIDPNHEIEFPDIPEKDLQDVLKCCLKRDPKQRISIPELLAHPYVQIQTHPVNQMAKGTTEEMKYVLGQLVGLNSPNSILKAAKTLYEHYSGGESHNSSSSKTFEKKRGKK
Test: Measurement of Inhibition of MPS1 Kinase
Description: The reaction was carried out for 60 min at room temperature and stopped by the addition of buffer (10 μl) containing 20 mM EDTA, 0.05% (v/v) Brij-35, in 0.1M HEPES-buffered saline (Free acid, Sigma, UK). […] The % inhibition of the compounds is calculated relative to the means of selected control wells. […] The % inhibitions at each concentration are then fitted to a 4 parameter logistic fit: y=(a+((b−a)/(1+((c/x^d)))) where a=asym min, b=asym max, c=IC50 and d=hill coefficient.

pIC50: 8.52
Structure (SMILES): COc1cc(-c2nnc3n2CCN(C(=O)CC(C)(C)C)C3)ccc1Nc1cc2cc(-c3cnn(CC(C)(C)O)c3)ccc2cn1 [US10188642, Example 55]
